# pIC50: −log10 of the molar value.
# Target: human adenosine A2b receptor (Homo sapiens (Human), UniProt P29275)
# Assay: Cellular in vitro reporter gene test for A2b receptor activity (CHO-K1, CRE-luciferase, NECA stimulation)
# Format: cell-based
# Conditions: recombinant CHO-K1 cell line, CRE-luciferase reporter, antagonism of EC50 concentration of NECA; in some cases means of several determinations, rounded to two significant figures; read-out: A2b receptor IC50
# Experimental: B-1. Cellular In Vitro Tests for Determining A2b Receptor Activity and Adenosine Receptor Selectivity
# In the case of the A2a and A2b cell lines, this is a minimal promoter having a plurality of cAMP-responsive elements (CRE). Stimulation of the Gs-coupled A2b or A2a receptors by NECA ultimately leads, via formation of cAMP, to CRE-dependent induction of luciferase expression, which is detected 3 hours after the start of the incubation with NECA using a detection solution in a suitable luminometer. For testing the antagonists, initially, in a pre-experiment, the concentration of NECA which, at the test day in question, results in half-maximum stimulation of luciferase expression (EC50 concentration) is determined. By joint incubation of this EC50 concentration of NECA with the substances to be tested, it is possible to determine their antagonistic activity.
# Sequence of human adenosine A2b receptor (P29275 whole entry): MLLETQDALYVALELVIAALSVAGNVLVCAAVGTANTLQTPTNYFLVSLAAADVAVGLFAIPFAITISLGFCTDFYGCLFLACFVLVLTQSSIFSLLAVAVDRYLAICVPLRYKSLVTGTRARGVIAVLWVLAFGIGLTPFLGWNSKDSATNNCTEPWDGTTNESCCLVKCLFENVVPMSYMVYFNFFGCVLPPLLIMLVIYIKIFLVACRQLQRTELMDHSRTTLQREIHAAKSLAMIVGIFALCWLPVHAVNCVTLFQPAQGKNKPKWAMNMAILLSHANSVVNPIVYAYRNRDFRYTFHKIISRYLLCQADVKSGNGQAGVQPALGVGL
row,SMILES,pIC50
1,"CCn1c(=O)c2c(C)c(CN3CCCN(C)C3=O)sc2n(CCC(F)(F)F)c1=O [Example 108, 3-Ethyl-5-methyl-6-[(3-methyl-2-oxotetrahydropyrimidin-1(2H)-yl)methyl]-1-(3,3,3-trifluoropropyl)thieno[2,3-d]pyrimidine-2,4(1H,3H)-dione]",8.48
2,"COCCn1c(=O)c2c(C)c(CN3CCNC3=NC(=O)OC)sc2n(CC2CCCO2)c1=O (racemic) [Example 390, Methyl [1-{[3-(2-methoxyethyl)-5-methyl-2,4-dioxo-1-(tetrahydrofuran-2-ylmethyl)-1,2,3,4-tetrahydrothieno[2,3-d]pyrimidin-6-yl]methyl}imidazolidin-2-ylidene]carbamate]",7.55
3,"COC(C)(C)Cn1c(=O)c2c(C)c(CN3CCNC3=O)sc2n(CCC(F)(F)F)c1=O [Example 236, 3-(2-Methoxy-2-methylpropyl)-5-methyl-6-[(2-oxoimidazolidin-1-yl)methyl]-1-(3,3,3-trifluoropropyl)thieno[2,3-d]pyrimidine-2,4(1H,3H)-dione]",8.22
4,"COC(=O)N=C1NCCN1Cc1sc2c(c1C)c(=O)n(C(C)C(F)(F)F)c(=O)n2CCC(F)(F)F (racemic) [Example 470, Methyl [1-{[5-methyl-2,4-dioxo-3-(1,1,1-trifluoropropan-2-yl)-1-(3,3,3-trifluoropropyl)-1,2,3,4-tetrahydrothieno[2,3-d]pyrimidin-6-yl]methyl}imidazolidin-2-ylidene]carbamate]",8.29
5,"CCn1c(=O)c2c(C)c(CN3CCCS3(=O)=O)sc2n(CCC(F)(F)F)c1=O [Example 16, 6-[(1,1-Dioxido-1,2-thiazolidin-2-yl)methyl]-3-ethyl-5-methyl-1-(3,3,3-trifluoropropyl)thieno[2,3-d]pyrimidine-2,4(1H,3H)-dione]",8.57
6,"Cc1c(CN2CCNC2=S)sc2c1c(=O)n(CC(F)(F)F)c(=O)n2CCCF [Example 40, 1-(3-Fluoropropyl)-5-methyl-6-[(2-thioxoimidazolidin-1-yl)methyl]-3-(2,2,2-trifluoroethyl)thieno[2,3-d]pyrimidine-2,4(1H,3H)-dione]",8.15
7,"COC(C)Cn1c(=O)c2c(C)c(CN3CCNC3=NC#N)sc2n(CCC(F)(F)F)c1=O (single isomer, unassigned) [Example 456, [1-{[3-(2-Methoxypropyl)-5-methyl-2,4-dioxo-1-(3,3,3-trifluoropropyl)-1,2,3,4-tetrahydrothieno[2,3-d]pyrimidin-6-yl]methyl}imidazolidin-2-ylidene]cyanamide]",7.82
8,"COCCn1c(=O)c2c(C)c(Cn3[nH]ccc3=O)sc2n(CC2CCCO2)c1=O (single isomer, unassigned) [Example 291, 3-(2-Methoxyethyl)-5-methyl-6-[(5-oxo-2,5-dihydro-1H-pyrazol-1-yl)methyl]-1-(tetrahydrofuran-2-ylmethyl)thieno[2,3-d]pyrimidine-2,4(1H,3H)-dione]",6.72
9,"COC(=O)N=C1NCCN1Cc1sc2c(c1C)c(=O)n(CC(C)(C)C)c(=O)n2CC1CCCO1 (single isomer, unassigned) [Example 465, Methyl [1-{[3-(2,2-dimethylpropyl)-5-methyl-2,4-dioxo-1-(tetrahydrofuran-2-ylmethyl)-1,2,3,4-tetrahydrothieno[2,3-d]pyrimidin-6-yl]methyl}imidazolidin-2-ylidene]carbamate]",7.89
10,"CCn1c(=O)c2c(C)c(CN3CCNC3=O)sc2n(CCN(C)C)c1=O [Example 83, 1-[2-(Dimethylamino)ethyl]-3-ethyl-5-methyl-6-[(2-oxoimidazolidin-1-yl)methyl]thieno[2,3-d]pyrimidine-2,4(1H,3H)-dione]",6.42
11,"CCn1c(=O)c2c(C)c(Cn3[nH]ccc3=O)sc2n(CC2CCCO2)c1=O (racemic) [Example 129, 3-Ethyl-5-methyl-6-[(5-oxo-2,5-dihydro-1H-pyrazol-1-yl)methyl]-1-(tetrahydrofuran-2-ylmethyl)thieno[2,3-d]pyrimidine-2,4(1H,3H)-dione]",7.72
12,"CCn1c(=O)c2c(C)c(CN3CCNC3=O)sc2n(CC(C)OC)c1=O (racemic) [Example 62, 3-Ethyl-1-(2-methoxypropyl)-5-methyl-6-[(2-oxoimidazolidin-1-yl)methyl]thieno[2,3-d]pyrimidine-2,4(1H,3H)-dione (racemate)]",7.14
13,"COCCn1c(=O)n(CC(C)(C)C)c(=O)c2c(C)c(CN3CCNC3=NC#N)sc21 [Example 445, [1-{[3-(2,2-Dimethylpropyl)-1-(2-methoxyethyl)-5-methyl-2,4-dioxo-1,2,3,4-tetrahydrothieno[2,3-d]pyrimidin-6-yl]methyl}imidazolidin-2-ylidene]cyanamide]",7.92
14,"Cc1c(CN2CCNC2=O)sc2c1c(=O)n(CC(C)C)c(=O)n2CC1CCCO1 (single isomer, unassigned) [Example 197, 3-Isobutyl-5-methyl-6-[(2-oxoimidazolidin-1-yl)methyl]-1-(tetrahydrofuran-2-ylmethyl)thieno[2,3-d]pyrimidine-2,4(1H,3H)-dione]",7.74
15,"COCCn1c(=O)n(CCC(F)(F)F)c(=O)c2c(C)c(CN3CCNC3=O)sc21 [Example 98, 1-(2-Methoxyethyl)-5-methyl-6-[(2-oxoimidazolidin-1-yl)methyl]-3-(3,3,3-trifluoropropyl)thieno[2,3-d]pyrimidine-2,4(1H,3H)-dione]",6.89
16,"COCCn1c(=O)n(CC(F)(F)F)c(=O)c2c(C)c(Cn3cc[nH]c3=O)sc21 [Example 340, 1-(2-Methoxyethyl)-5-methyl-6-[(2-oxo-2,3-dihydro-1H-imidazol-1-yl)methyl]-3-(2,2,2-trifluoroethyl)thieno[2,3-d]pyrimidine-2,4(1H,3H)-dione]",7.74
17,"COCCn1c(=O)c2c(C)c(CN3CCNC(=O)C3=O)sc2n(CC2CCO2)c1=O (single isomer, unassigned) [Example 402, 6-[(2,3-Dioxopiperazin-1-yl)methyl]-3-(2-methoxyethyl)-5-methyl-1-(oxetan-2-ylmethyl)thieno[2,3-d]pyrimidine-2,4(1H,3H)-dione]",7.00
18,"Cc1c(Cn2nc[nH]c2=O)sc2c1c(=O)n(CC(F)(F)F)c(=O)n2CC1CCCO1 (racemic) [Example 434, 5-Methyl-6-[(5-oxo-4,5-dihydro-H-1,2,4-triazol-1-yl)methyl]-1-(tetrahydrofuran-2-ylmethyl)-3-(2,2,2-trifluoroethyl)thieno[2,3-d]pyrimidine-2,4(1H,3H)-dione]",7.09
19,"Cc1c(CN2CCNC2=O)sc2c1c(=O)n(CC(F)F)c(=O)n2CC1CCCO1 (racemic) [Example 219, 3-(2,2-Difluoroethyl)-5-methyl-6-[(2-oxoimidazolidin-1-yl)methyl]-1-(tetrahydrofuran-2-ylmethyl)thieno[2,3-d]pyrimidine-2,4(1H,3H)-dione]",7.72
20,"CCn1c(=O)c2c(C)c(Cn3nc[nH]c3=O)sc2n(CC2CCCO2)c1=O (single isomer, unassigned) [Example 420, 3-Ethyl-5-methyl-6-[(5-oxo-4,5-dihydro-1H-1,2,4-triazol-1-yl)methyl]-1-(tetrahydrofuran-2-ylmethyl)thieno[2,3-d]pyrimidine-2,4(1H,3H)-dione]",7.30
21,"Cc1c(CN2CCNC2=O)sc2c1c(=O)n(C(C)C)c(=O)n2CC1CCCO1 (racemic) [Example 186, 3-Isopropyl-5-methyl-6-[(2-oxoimidazolidin-1-yl)methyl]-1-(tetrahydrofuran-2-ylmethyl)thieno[2,3-d]pyrimidine-2,4(1H,3H)-dione]",7.89
22,"CCn1c(=O)c2c(C)c(CN3CCNC3=S)sc2n(CC2CCCCO2)c1=O (racemic) [Example 36, 3-Ethyl-5-methyl-1-(tetrahydro-2H-pyran-2-ylmethyl)-6-[(2-thioxoimidazolidin-1-yl)methyl]thieno[2,3-d]pyrimidine-2,4(1H,3H)-dione (racemate)]",7.42
23,"Cc1c(CN2CCNC2=O)sc2c1c(=O)n(CC(C)C)c(=O)n2CCCF [Example 192, 1-(3-Fluoropropyl)-3-isobutyl-5-methyl-6-[(2-oxoimidazolidin-1-yl)methyl]thieno[2,3-d]pyrimidine-2,4(1H,3H)-dione]",8.49
24,"CCn1c(=O)c2c(C)c(CN3CCNS3(=O)=O)sc2n(CCC(F)(F)F)c1=O [Example 27, 6-[(1,1-Dioxido-1,2,5-thiadiazolidin-2-yl)methyl]-3-ethyl-5-methyl-1-(3,3,3-trifluoropropyl)thieno[2,3-d]pyrimidine-2,4(1H,3H)-dione]",8.57
25,"COC(=O)N=C1NCCN1Cc1sc2c(c1C)c(=O)n(C(C)C)c(=O)n2CC1CCO1 (single isomer, unassigned) [Example 457, Methyl [1-{[3-isopropyl-5-methyl-1-(oxetan-2-ylmethyl)-2,4-dioxo-1,2,3,4-tetrahydrothieno[2,3-d]pyrimidin-6-yl]methyl}imidazolidin-2-ylidene]carbamate]",8.15
26,"Cc1c(CN2CCNC2=O)sc2c1c(=O)n(CC(C)(C)C)c(=O)n2CC1CCCO1 (single isomer, unassigned) [Example 407, 3-(2,2-Dimethylpropyl)-5-methyl-6-[(2-oxoimidazolidin-1-yl)methyl]-1-(tetrahydrofuran-2-ylmethyl)thieno[2,3-d]pyrimidine-2,4(1H,3H)-dione]",7.49
27,"Cc1c(CN2CCNC2=O)sc2c1c(=O)n(C(C)C)c(=O)n2CC1CCO1 (racemic) [Example 183, 3-Isopropyl-5-methyl-1-(oxetan-2-ylmethyl)-6-[(2-oxoimidazolidin-1-yl)methyl]thieno[2,3-d]pyrimidine-2,4(1H,3H)-dione]",7.77

# From patent publication US10428083B2, “Heterocyclylmethyl-thienouracile as antagonists of the adenosine-A2B-receptor” (BAYER PHARMA AKTIENGESELLSCHAFT, priority 2015, dated 2019)
